Test results reported in patent US20100247579A1, “THERAPEUTIC AGENT FOR CANCER” (priority 2007, published 2010).
Where a name gives a salt, the structure may show the parent alone. Read-outs that look alike come from different tables or passages of the source.

Assays:
[1] = test system: lymphocytes derived from cancer patient No. PT009 expanded with OKT3 and CH-296; experiment: Resistance to anticancer agents, WST-1 GI50 on cultured lymphocytes of cancer patient No. PT009; format: cell-based, human; details: Homo sapiens, Lymphocyte, day 10 of culture with OKT3 and CH-296, 20 hours with drug, read-out: GI50
Description: After that, the suspension was stained by the trypan blue staining method to calculate the viable cell count, and then subjected to each experiment.
(§1) On the other hand, the IL-2/5HRPMI was added to the control group in 50 μL/well each.
(§2) These culture plates were incubated at 37° C. for 20 hours in the presence of 5% CO2. After the incubation, WST-1 (Premix WST-1 Cell Proliferation Assay System, manufactured by Takara Bio Inc.) was added in 20 μL/well each to each well of the plate, and incubated in the presence of 5% CO2 at 37° C. for 4 hours. The plates after the incubation were centrifuged at 500×g at room temperature for 5 minutes. After the centrifugation, 100 μL of the supernatant was collected from each well, and the absorbance was measured at an absorption wavelength of 450 nm and a control wavelength of 630 nm [hereinafter referred to as the absorbance (450 nm-630 nm)] using a microplate reader (manufactured by Bio-Rad Laboratories, Inc., Model Number 680XR), and then the specific absorbance (450 nm-630 nm) was calculated according to the following formula.
(§3) Specific absorbance (450 nm-630 nm)=Absorbance of Test Cell Addition Group (450 nm-630 nm)−Absorbance of Control Group (450 nm-630 nm) Formula 2: […]

[2] = test system: expanded lymphocytes derived from a human healthy donor; experiment: Resistance to anticancer agents, WST-1 GI50 on cultured lymphocytes of a human healthy donor; format: cell-based; details: Homo sapiens, Lymphocyte
Description: as §1, §2, §3
Here, a group where only OKT3 was immobilized to the culture equipment in the expansion of the lymphocytes was also set.
However, in the case of paclitaxel, a human AB type serum was used as a solvent for dilution, and for other drugs, 5HRPMI was used for dilution.

[3] = test system: PHA blast cells from non-autologous healthy donor; experiment: Non-autologous specific cytotoxicity after allogeneic MLR (Calcein-AM); format: cell-based, human; details: E/T ratio 90
Description: The PBMCs derived from a non-autologous healthy donor, prepared in item (2) of Example 6, were adjusted with 5HRPMI to 1×10^6 cells/mL, and seeded to a 6-well cell culture plate (manufactured by Corning Inc.) in a volume of 3 mL each. IL-2 was added thereto to a final concentration of 100 U/mL and phytohemaaglutinin (manufactured by Sigma, hereinafter referred to as PHA) was added thereto to a final concentration of 2 μg/mL, and the cells were cultured at 37° C. in 5% CO2. On day 4 of culture, 12 mL of 5HRPMI was added to the cell culture and IL-2 was added thereto to a final concentration of 100 U/mL. Thereafter, the cell culture was dispensed into a 6-well cell culture plate so as to have a volume of 5 mL/well. The culture was continued until day 7 of culture, thereby preparing PHA blast (blastogenic) cells.
Using the cells on day 7 of culture prepared in item (3) of Example 6, non-autologous specific cytotoxicity was assayed in the same manner as in item (5) of Example 2, except that the PHA blast cells which had been subjected to blastogenic cells in item (4) of Example 6 were used as the target cells which were incubated at 37° C. for 2 hours after addition of calcein-AM. These calcein-labeled target cells were mixed with a 30-fold amount of K562 cells, and the cytotoxicity was assayed using these target cells for determining the cytotoxicity. […]

[4] = test system: lymphocytes expanded from PBMC of cancer patient; experiment: Flow cytometry analysis of naive T-like cell phenotypes in expanded lymphocytes; format: cell-based, human; details: Example 5
Description: The cells on days 10 and 14 of culture, prepared in item (3) of Example 2, were washed with DPBS containing 1% bovine serum albumin (BSA, manufactured by Sigma) (hereinafter referred to as 1% BSA/DPBS) or DPBS, and the cells were suspended in 1% BSA/DPBS, then FITC labeled mouse IgG1/RD1 labeled mouse IgG1/PC5 labeled mouse IgG1 (manufactured by Beckman Coulter Inc.) were added thereto as a negative control. Similarly, cells added with RD1 labeled mouse anti-human CD45RA antibody (manufactured by Beckman Coulter Inc.)/FITC labeled mouse anti-human CCR7 antibody (manufactured by R&D Systems), cells added with RD1 labeled mouse anti-human CD45RA antibody/FITC labeled mouse anti-human CD28 antibody (manufactured by eBioscience, Inc.)/PC5 labeled mouse anti-human CD27 antibody (manufactured by Beckman Coulter Inc.), and cells added with RD1 labeled mouse anti-human CD45RA antibody/FITC labeled mouse anti-human CCR7 antibody/PC5 labeled mouse anti-human CD62L antibody (manufactured by Beckman Coulter Inc.) were prepared. After addition of each antibody, incubation was carried out on ice for 30 minutes. After the incubation, the cells were washed with DPBS containing 0.1% BSA (hereinafter referred to as 0.1% BSA/DPBS), and suspended again in DPBS. The ratio of CCR7^+CD45RA^+ cells, CD27^+CD45RA^+ cells, CD28^+CD45RA^+ cells, CD62L^+CD45RA^+ cells, and CCR7^+CD62L^+CD45RA^+ cells of each cell population was calculated. […]
With respect to the cells on days 10 and 14 of culture, prepared in item (2) of Example 5, analysis of CCR7^+CD45RA^+ cells, CD62L^+CD45RA^+ cells, and CCR7^+CD62L^+CD45RA^+ cells was performed similarly to the method described in item (4) of Example 2.

PBMC of cancer patient = experiment: Expansion of lymphocytes from PBMC of cancer patients in plate/flask, OKT3 alone versus OKT3 and CH-296; format: cell-based, human
Description: The OKT3 and the CH-296 were immobilized to the culture equipment used in the following experiment. That is, an ACD-A solution containing OKT3 (final concentration: 5 μg/mL) and CH-296 (final concentration: 25 μg/mL) was added to a 12-well cell culture plate (manufactured by Corning Inc.) in a volume of 0.45 mL/well each, and incubated at 37° C. for 5 hours in 5% CO2. On this occasion, a group wherein only OKT3 was immobilized was set. The ACD-A solution containing the OKT3 or the OKT3 and the CH-296 was removed from the culture equipment by aspiration just before use, washed twice with DPBS and once with the RPMI 1640 medium, and then subjected to each experiment.
The PBMC of 0.53×10^6 cells derived from the cancer patient and separated in item (1) of Example 2 was suspended in 5.3 mL of 0.6% plasma containing KBM551 or 0.2% HSA/GT-T503, and added to the plate immobilized with the OKT3 or the OKT3 and the CH-296 as prepared in item (1) of Example 5. IL-2 was added thereto so as to have a final concentration of 200 U/mL and the mixture was incubated at 37° C. under 5% CO2 (on day 0 of culture). On day 4 of culture, the cell solution in each well was suspended, and a part of the suspension was diluted 8.3-fold using 0.6% plasma-containing KBM551 or 0.2% HSA/GT-T503. Then, 7.8 mL of the diluted solution was transferred to a 25 cm^2-cell culture flask (manufactured by Corning Inc.) to which nothing was immobilized, and added with IL-2 to each final concentration of 200 U/mL. The culture was continued, and on day 7, a plasma free KBM551 or a 0.2% HSA/GT-T503 was added to the culture solution in each group in an equivalent amount to dilute two-fold, and then added with IL-2 so as to have each final concentration of 200 U/mL. On day 10 of culture, the cell solution in each group was diluted two-fold using a plasma free KBM551 or a 0.2% HSA/GT-T503, and 15.6 mL each of the diluted solution was transferred to a fresh standing 25 cm^2-cell culture flask to which nothing was immobilized. IL-2 was added thereto so as to have a final concentration of 200 U/mL in each group. On days 10 and 14 from the start of culture, the number of viable cells was counted by the trypan blue staining method and an expansion fold was calculated by comparing the number of counted cells with the number of cells at the start of culture.

[5] = test system: X-ray irradiated PBMCs derived from an allogeneic donor (stimulator cells); experiment: Allogeneic mixed lymphocyte reaction (MLR) using cultured lymphocytes (expansion fold); format: cell-based, human
[6] = PBMC of patient PT003, 0.2% HSA/GT-T503
[7] = PBMC of patient PT006 (breast cancer), KBM551
[8] = PBMC of patient PT008 (laryngeal cancer), KBM551
[9] = PBMC of patient PT012 (rectal cancer), KBM551

CC[C@]1(O)C[C@H]2CN(CCc3c([nH]c4ccccc34)[C@@](C(=O)OC)(c3cc4c(cc3OC)N(C=O)[C@H]3[C@@](O)(C(=O)OC)[C@H](OC(C)=O)[C@]5(CC)C=CCN6CC[C@]43[C@@H]65)C2)C1 [Vincristine Sulfate, vincristine sulfate]
GI50 [1]: 0.2 mg/L | GI50 ([2]; healthy donor lymphocytes expanded with OKT3 + CH-296, read-out: GI50 (μg/mL) Initial Stimulation OKT3 + CH-296): 24.3 µg/mL | GI50 ([2]; healthy donor lymphocytes expanded with OKT3 alone, read-out: GI50 (μg/mL) Initial Stimulation OKT3): 4.42 µg/mL

OKT3: Anti-CD3 monoclonal antibody (OKT3), immobilized alone to the culture equipment as initial stimulation
Cytotoxicity (%) ([3]; lymphocytes of patient PT012, 10 days of lymphocyte expansion): 15.2% | Cytotoxicity (%) ([3]; lymphocytes of patient PT012, 14 days of lymphocyte expansion): 27.6% | CCR7^+CD45RA^+ (%) On Day 10 from Start of Culture [4, 6]: 13.3% | CCR7^+CD62L^+CD45RA^+ (%) On Day 10 from Start of Culture [4, 6]: 13.1% | CD62L^+CD45RA^+ (%) On Day 10 from Start of Culture [4, 6]: 52.5% | CCR7^+CD45RA^+ (%) On Day 10 from Start of Culture ([4]; PBMC of patient PT003, KBM551): 5.4% | CCR7^+CD62L^+CD45RA^+ (%) On Day 10 from Start of Culture ([4]; PBMC of patient PT003, KBM551): 5.1% | CD62L^+CD45RA^+ (%) On Day 10 from Start of Culture ([4]; PBMC of patient PT003, KBM551): 50.9% | CCR7^+CD45RA^+ (%) On Day 10 from Start of Culture ([4]; PBMC of patient PT006, KBM551): 24.9% | CCR7^+CD45RA^+ (%) On Day 14 from Start of Culture ([4]; PBMC of patient PT006, KBM551): 36.9% | CCR7^+CD62L^+CD45RA^+ (%) On Day 10 from Start of Culture ([4]; PBMC of patient PT006, KBM551): 24.6% | CCR7^+CD62L^+CD45RA^+ (%) On Day 14 from Start of Culture ([4]; PBMC of patient PT006, KBM551): 36.7% | CD62L^+CD45RA^+ (%) On Day 10 from Start of Culture ([4]; PBMC of patient PT006, KBM551): 79.2% | CD62L^+CD45RA^+ (%) On Day 14 from Start of Culture ([4]; PBMC of patient PT006, KBM551): 75.7% | CCR7^+CD45RA^+ (%) On Day 10 from Start of Culture ([4]; PBMC of patient PT008, KBM551): 4.6% | CCR7^+CD45RA^+ (%) On Day 14 from Start of Culture ([4]; PBMC of patient PT008, KBM551): 4.2% | CCR7^+CD62L^+CD45RA^+ (%) On Day 10 from Start of Culture ([4]; PBMC of patient PT008, KBM551): 4.2% | CCR7^+CD62L^+CD45RA^+ (%) On Day 14 from Start of Culture ([4]; PBMC of patient PT008, KBM551): 3.9% | CD62L^+CD45RA^+ (%) On Day 10 from Start of Culture ([4]; PBMC of patient PT008, KBM551): 53.0% | CCR7^+CD45RA^+ (%) On Day 10 from Start of Culture ([4]; PBMC of patient PT012, KBM551): 19.4% | CCR7^+CD45RA^+ (%) On Day 14 from Start of Culture ([4]; PBMC of patient PT012, KBM551): 25.0% | CCR7^+CD62L^+CD45RA^+ (%) On Day 10 from Start of Culture ([4]; PBMC of patient PT012, KBM551): 17.1% | CCR7^+CD62L^+CD45RA^+ (%) On Day 14 from Start of Culture ([4]; PBMC of patient PT012, KBM551): 23.4% | CD62L^+CD45RA^+ (%) On Day 10 from Start of Culture ([4]; PBMC of patient PT012, KBM551): 56.0% | CD62L^+CD45RA^+ (%) On Day 14 from Start of Culture ([4]; PBMC of patient PT012, KBM551): 43.4% | Expansion Fold (Fold) On Day 10 from Start of Culture (PBMC of cancer patient; PBMC of patient PT003 (breast cancer), 0.2% HSA/GT-T503): ×200 Fold | Expansion Fold (Fold) On Day 10 from Start of Culture (PBMC of cancer patient; PBMC of patient PT003 (breast cancer), KBM551): ×193 Fold | Expansion Fold (Fold) On Day 10 from Start of Culture (PBMC of cancer patient; [7]): ×202 Fold | Expansion Fold (Fold) On Day 14 from Start of Culture (PBMC of cancer patient; [7]): ×382 Fold | Expansion Fold (Fold) On Day 10 from Start of Culture (PBMC of cancer patient; [8]): ×119 Fold | Expansion Fold (Fold) On Day 14 from Start of Culture (PBMC of cancer patient; [8]): ×292 Fold | Expansion Fold (Fold) On Day 10 from Start of Culture (PBMC of cancer patient; [9]): ×281 Fold | Expansion Fold (Fold) On Day 14 from Start of Culture (PBMC of cancer patient; [9]): ×723 Fold | Expansion Rate (Fold) ([5]; lymphocytes of patient PT012, 10 days of lymphocyte expansion, responder:stimulator 1:0): x3.0 Fold | Expansion Rate (Fold) ([5]; lymphocytes of patient PT012, 10 days of lymphocyte expansion, responder:stimulator 1:1): x5.3 Fold | Expansion Rate (Fold) ([5]; lymphocytes of patient PT012, 14 days of lymphocyte expansion, responder:stimulator 1:0): x1.1 Fold | Expansion Rate (Fold) ([5]; lymphocytes of patient PT012, 14 days of lymphocyte expansion, responder:stimulator 1:1): x3.7 Fold
